Source: patent US5488060A, “Substituted thiadiazoles, compositions containing them and their use as antimicrobial and marine antifouling agents” (The Dow Chemical Company, priority 1994, dated 1996)
Converted amounts (≈) assume the structure as drawn. Like-named read-outs stand apart in the source and are kept apart here.

How the values were obtained:
Format in all cases: cell-based
Aspergillus niger (An) = assay: Minimum inhibitory concentration (MIC) in malt yeast agar, Aspergillus niger
In short: (§1)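 Compound (1% acetone/water solution) incorporated into pH 5.5 malt yeast agar at 0–500 ppm; plates inoculated by replicator with 1:9-diluted saline suspensions of 7-day fungal cultures. Incubated at 30° C and read at 72 hours; MIC is the lowest concentration inhibiting growth.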

[1] = tested on: Staphylococcus aureus (Sa); assay: Minimum inhibitory concentration (MIC) in nutrient agar, Staphylococcus aureus
In short: (§2)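 MIC is determined by agar incorporation into neutral and alkaline nutrient agar, with compound at final 500 to 1.0 ppm added from a 1% acetone–water solution. Plates are inoculated with 10^8 CFU/mL cultures and read after 48 h at 30° C.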

[2] = tested on: Klebsiella pneumoniae (Kp); assay: Minimum inhibitory concentration (MIC) in nutrient agar, Klebsiella pneumoniae
In short: as §2

Trichoderma viride (Tv) = assay: Minimum inhibitory concentration (MIC) in malt yeast agar, Trichoderma viride; settings: pH 5.5; malt yeast agar, 30° C., 72 hours for fungi; read-out: Minimum Inhibitory Concentration, Tv
In short: as §1

[3] = tested on: Pseudomonas aeruginosa (PRD-10); assay: Minimum inhibitory concentration (MIC) in nutrient agar, Pseudomonas aeruginosa PRD-10; settings: 48 h
In short: as §2

Escherichia coli (Ec) = assay: Minimum inhibitory concentration (MIC) in nutrient agar, Escherichia coli
In short: as §2

Bacillus subtilis (Bs) = assay: Minimum inhibitory concentration (MIC) in nutrient agar, Bacillus subtilis
In short: as §2

[4] = tested on: Aureobasidium pullulan (Ap); assay: Minimum inhibitory concentration (MIC) in malt yeast agar, Aureobasidium pullulan
In short: as §1

[5] = tested on: Penicillium chrysogenum (Pc); assay: Minimum inhibitory concentration (MIC) in malt yeast agar, Penicillium chrysogenum
In short: as §1

Fusarium oxysporum (Fo) = assay: Minimum inhibitory concentration (MIC) in malt yeast agar, Fusarium oxysporum; settings: pH 5.5; malt yeast agar, 30° C., 72 hours for fungi; read-out: Minimum Inhibitory Concentration, Fo
In short: as §1

[6] = tested on: Enterobacter aerogenes (Ea); assay: Minimum inhibitory concentration (MIC) in nutrient agar, Enterobacter aerogenes; settings: Klebsiella aerogenes, 48 h
In short: as §2

[7] = tested on: Saccharomyces cerevisiae (Sc); assay: Minimum inhibitory concentration (MIC) in malt yeast agar, Saccharomyces cerevisiae
In short: (§3)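 Growth is scored at 30 °C after 72 h for fungi and 48 h for yeast on malt yeast agar (pH 5.5) containing compound at final levels from 500 down to zero ppm. Organisms are grown 7 days at 30 °C, suspended in saline with octylphenoxy polyethoxy ethanol, and diluted 1:9 before replicator inoculation.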

[8] = tested on: Pseudomonas aeruginosa (Pa); assay: Minimum inhibitory concentration (MIC) in nutrient agar, Pseudomonas aeruginosa; settings: 30° C., 48 hours, read-out: Minimum Inhibitory Concentration, Pa
In short: as §2

[9] = tested on: Salmonella choleraesuis (Se); assay: Minimum inhibitory concentration (MIC) in nutrient agar, Salmonella choleraesuis; settings: Salmonella enterica, 48 h
In short: as §2

Proteus vulgaris (Pv) = assay: Minimum inhibitory concentration (MIC) in nutrient agar, Proteus vulgaris; settings: 48 h
In short: as §2

Candida albicans (Ca) = assay: Minimum inhibitory concentration (MIC) in malt yeast agar, Candida albicans; settings: pH 5.5; malt yeast agar, 30° C., 48 hours for yeast; read-out: Minimum Inhibitory Concentration, Ca
In short: as §3

[10] = 48 h, pH 8.2, read-out: Minimum Inhibitory Concentration, Sa
[11] = pH 6.8, nutrient agar, 30° C., 48 hours, read-out: Minimum Inhibitory Concentration, Sa
[12] = 48 h, pH 8.2, read-out: Minimum Inhibitory Concentration, Kp
[13] = pH 6.8, nutrient agar, 30° C., 48 hours, read-out: Minimum Inhibitory Concentration, Kp
[14] = pH 6.8, read-out: Minimum Inhibitory Concentration, PRD
[15] = pH 8.2, read-out: Minimum Inhibitory Concentration, PRD
[16] = 48 h, pH 6.8, read-out: Minimum Inhibitory Concentration, Ec
[17] = 48 h, pH 8.2, read-out: Minimum Inhibitory Concentration, Ec
[18] = 48 h, pH 8.2, read-out: Minimum Inhibitory Concentration, Bs
[19] = pH 6.8, nutrient agar, 30° C., 48 hours, read-out: Minimum Inhibitory Concentration, Bs
[20] = pH 5.5, malt yeast agar, 30° C., 72 hours for fungi, read-out: Minimum Inhibitory Concentration, PC
[21] = pH 6.8, read-out: Minimum Inhibitory Concentration, Ea
[22] = pH 8.2, read-out: Minimum Inhibitory Concentration, Ea
[23] = pH 5.5, malt yeast agar, 30° C., 48 hours for yeast, read-out: Minimum Inhibitory Concentration, SC
[24] = pH 6.8, read-out: Minimum Inhibitory Concentration, SC
[25] = pH 8.2, read-out: Minimum Inhibitory Concentration, SC
[26] = pH 6.8, read-out: Minimum Inhibitory Concentration, Pv
[27] = pH 8.2, read-out: Minimum Inhibitory Concentration, Pv
[28] = 72 h, pH 5.5, read-out: Minimum Inhibitory Concentration, An
[29] = pH 5.5, read-out: Minimum Inhibitory Concentration, Ap

Compound	MIC [1, 10] [µg/mL]	MIC [1, 11] [µg/mL]	MIC [2, 12] [µg/mL]	MIC [2, 13] [µg/mL]	MIC (Trichoderma viride (Tv)) [µg/mL]	MIC [3, 14] [µg/mL]	MIC [3, 15] [µg/mL]	MIC (Escherichia coli (Ec); [16]) [µg/mL]	MIC (Escherichia coli (Ec); [17]) [µg/mL]	MIC (Bacillus subtilis (Bs); [18]) [µg/mL]	MIC (Fusarium oxysporum (Fo)) [µg/mL]	MIC [6, 21] [µg/mL]	MIC [6, 22] [µg/mL]	MIC ([8]; pH 6.8, nutrient agar) [µg/mL]	MIC ([8]; pH 8.2, nutrient agar) [µg/mL]	MIC [9, 24] [µg/mL]	MIC [9, 25] [µg/mL]	MIC (Proteus vulgaris (Pv); [26]) [µg/mL]	MIC (Proteus vulgaris (Pv); [27]) [µg/mL]	MIC (Candida albicans (Ca)) [µg/mL]	further results
N#CSCSc1nsnc1-c1ccc([N+](=O)[O-])cc1 [Example XXIX, 4-(4-Nitrophenyl)-3-thiocyanatomethylthio-1,2,5-thiadiazole]	500 (≈ 1610 µM)	500 (≈ 1610 µM)	> 500	500 (≈ 1610 µM)	9 (≈ 29 µM)	500 (≈ 1610 µM)	> 500	500 (≈ 1610 µM)	500 (≈ 1610 µM)	500 (≈ 1610 µM)	9 (≈ 29 µM)	500 (≈ 1610 µM)	> 500	500 (≈ 1610 µM)	> 500	500 (≈ 1610 µM)	> 500	500 (≈ 1610 µM)	> 500	9 (≈ 29 µM)	MIC (Aspergillus niger (An); pH 5.5, malt yeast agar, 30° C., 72 hours for fungi, read-out: Minimum Inhibitory Concentration, An): 9 µg/mL (≈ 29 µM); MIC (Bacillus subtilis (Bs); [19]): 50 µg/mL (≈ 161 µM); MIC ([4]; pH 5.5, malt yeast agar, 30° C., read-out: Minimum Inhibitory Concentration, Ap): > 500 µg/mL; MIC [5, 20]: 9 µg/mL (≈ 29 µM); MIC [7, 23]: 9 µg/mL (≈ 29 µM)
CS(=O)(=O)c1ccc(-c2nsnc2SCSC#N)cc1 [Example XXV, 4-(4-Methylsulfonylphenyl)-3-thiocyanatomethylthio-1,2,5-thiadiazole]	500 (≈ 1460 µM)	500 (≈ 1460 µM)	> 500	500 (≈ 1460 µM)	> 500	500 (≈ 1460 µM)	> 500	500 (≈ 1460 µM)	500 (≈ 1460 µM)	500 (≈ 1460 µM)	> 500	500 (≈ 1460 µM)	> 500	500 (≈ 1460 µM)	> 500	500 (≈ 1460 µM)	> 500	500 (≈ 1460 µM)	> 500	500 (≈ 1460 µM)	MIC (Aspergillus niger (An); [28]): 250 µg/mL (≈ 728 µM); MIC (Bacillus subtilis (Bs); 48 h, pH 6.8, read-out: Minimum Inhibitory Concentration, Bs): 500 µg/mL (≈ 1460 µM); MIC [4, 29]: 250 µg/mL (≈ 728 µM); MIC [5, 20]: 9 µg/mL (≈ 26.2 µM); MIC [7, 23]: 500 µg/mL (≈ 1460 µM)
N#CSCSc1nsnc1-c1ccc(C(F)(F)F)cc1 [Example XXVI, 4-(4-Trifluoromethyl-phenyl)-3-thiocyanatomethylthio-1,2,5-thiadiazole]		25 (≈ 75 µM)	> 500	500 (≈ 1500 µM)	> 500	500 (≈ 1500 µM)	> 500	500 (≈ 1500 µM)			> 500	500 (≈ 1500 µM)	> 500	500 (≈ 1500 µM)	> 500	500 (≈ 1500 µM)	> 500	500 (≈ 1500 µM)	> 500	> 500	MIC (Aspergillus niger (An); [28]): 25 µg/mL (≈ 75 µM); MIC ([1]; pH 8.2, nutrient agar, 30° C., 48 hours, read-out: Minimum Inhibitory Concentration, Sa): 25 µg/mL (≈ 75 µM); MIC (Escherichia coli (Ec); pH 8.2, nutrient agar, 30° C., 48 hours, read-out: Minimum Inhibitory Concentration, Ec): 250 µg/mL (≈ 750 µM); MIC (Bacillus subtilis (Bs); [19]): 9 µg/mL (≈ 27 µM); MIC (Bacillus subtilis (Bs); pH 8.2, nutrient agar, 30° C., 48 hours, read-out: Minimum Inhibitory Concentration, Bs): 9 µg/mL (≈ 27 µM); MIC [4, 29]: 5 µg/mL (≈ 15 µM); MIC ([5]; 72 h, pH 5.5, read-out: Minimum Inhibitory Concentration, PC): 2.5 µg/mL (≈ 7.5 µM); MIC ([7]; 48 h, pH 5.5, read-out: Minimum Inhibitory Concentration, SC): 2.5 µg/mL (≈ 7.5 µM)
